Test results: patent publication US20250381242A1 (INVAIO SCIENCES, INC., priority 2024, published 2025)
No end group written: not given here.

What was measured:
E. coli = assay: Bacterial growth inhibition by OD600 absorbance, E. coli; type: cell-based, E. coli (DH5-alpha); settings: peptide 10 μM, 24 hours at 37° C., OD 600 nm
Summary of the method: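 Peptides added to bacterial culture at 10 μM final (0.1% DMSO); X. citri grown at 30° C., E. coli at 37° C., for 24 h. OD600 read before and after growth; percent inhibition derived relative to 0.1% DMSO negative and oxytetracycline/streptomycin positive controls.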

X. citri = assay: Bacterial growth inhibition by OD600 absorbance, X. citri; type: cell-based, X. citri subsp. citri (ATCC 49118); settings: peptide 10 μM, 24 hours at 30° C., OD 600 nm
A. tumefaciens = settings: 24 h, 10 μM
E. amylovora = settings: 24 h, 10 μM
L. crescens = settings: 10 μM

Sequence | growth inhibition, E. coli (E. coli) [%] | growth inhibition, X. citri (X. citri) [%] | growth inhibition, A. tumefaciens (A. tumefaciens) [%] | growth inhibition, E. amylovora (E. amylovora) [%] | growth inhibition, L. crescens (L. crescens) [%]
WKKIWKKIWKPGIKKWIKKWIK [compound 24] | 100.00 | 99.69 | 97.97 | 98.38 | <90
WKLKWKLKWKLK [compound 104] | <90 | <90 | 100.00 | 99.91 | <90
WLNALLHHGYKRKFH [compound 93] | <90 | <90 | <90 | <90 | <90
WLSKTAKKLWLSKTAKKLWLSKTAKKL [compound 15] | <90 | 96.25 | <90 | <90 | <90
WWKAAAKAAAKWW [compound 117] | <90 | 100.00 | 99.97 | 99.79 | <90
